What is called IC50 is the concentration at which inhibition is half-maximal.

T1 sequence (P22001 whole entry): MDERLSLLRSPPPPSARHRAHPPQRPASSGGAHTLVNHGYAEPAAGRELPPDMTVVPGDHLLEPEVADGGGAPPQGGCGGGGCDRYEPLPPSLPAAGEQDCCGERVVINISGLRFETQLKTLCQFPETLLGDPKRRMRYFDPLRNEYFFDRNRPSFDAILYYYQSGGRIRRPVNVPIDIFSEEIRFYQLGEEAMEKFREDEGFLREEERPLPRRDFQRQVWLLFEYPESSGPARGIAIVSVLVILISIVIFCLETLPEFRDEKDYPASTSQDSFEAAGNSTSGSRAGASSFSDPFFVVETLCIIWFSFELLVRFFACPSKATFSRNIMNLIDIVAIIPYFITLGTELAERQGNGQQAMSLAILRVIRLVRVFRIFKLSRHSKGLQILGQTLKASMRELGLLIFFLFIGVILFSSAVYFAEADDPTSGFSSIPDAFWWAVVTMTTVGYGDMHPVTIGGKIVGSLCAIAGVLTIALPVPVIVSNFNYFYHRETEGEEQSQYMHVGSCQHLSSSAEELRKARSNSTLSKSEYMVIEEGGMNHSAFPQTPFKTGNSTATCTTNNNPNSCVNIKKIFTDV

This assay addresses T1, Kv1.3 (Homo sapiens, UniProt P22001).
T1 construct: expressed in transfected cells; host or cells: CHO (Kv1.3/CHO)
Briefly: Electrophysiology: planar patch-clamp of Kv1.3 currents, IC50 from steady state current amplitude. Particulars: Kv1.3 electrophysiology, results according to Method D1, read-out: IC50 (Kv1.3 ephys steady state). Type of assay: cell-based. On the procedure:
The inhibition data shown for the compounds of the list below was calculated using the steady state current amplitude at the end of the depolarising pulse in patch clamp evaluations (as described in the Biology Protocols: 1. Electrophysiology).
Kv1.x currents were measured in Kv1.3/CHO or Kv1.5/CHO cells using a planar electrode version (Nanion Technologies GMBH) of the patch-clamp technique. Whole-cell Kv1.x current transients were evoked by 500 ms depolarising voltage pulses to +40 mV from a holding potential of −80 mV applied at 10 s intervals for Kv1.5 and at 30 s intervals for Kv1.3 to allow adequate time for recovery from inactivation. Cells were continuously bathed in a buffered saline solution containing (mM): 160 NaCl, 4.5 KCl, 2 CaCl2, 1 MgCl2, 5 glucose, 10 HEPES, pH 7.4, 290-310 mOsm·Kg^−1. The internal (pipette) solution contained (mM): 10 NaCl, 70 KF, 75 KCl, 2 MgCl2, 10 HEPES, 10 EGTA, pH 7.2, 290-310 mOsm·Kg^−1. Series resistance compensation (60-80%) was applied to cells in which the peak current amplitude exceeded 2 nA.
Compound Preparation and Potency Assessment
Compounds were initially dissolved in DMSO to 10 mM. After further dilution in DMSO, compounds were finally diluted in bath solution 1/200 (to give a final DMSO concentration of 0.5%) and applied directly to the recording chamber. Compounds were added at increasing concentrations allowing ample time for steady state block to be achieved between each concentration. Each compound was tested at 5-6 different concentrations on 2-3 cells. Compound IC50 values were determined by fitting the average normalised reduction of either the current integral or the steady state current amplitude at the end of the 500 ms depolarising pulse obtained at each compound concentration to the Hill equation. The IC50 data reported herein is based on the steady state calculation.
For orientation: The patch-clamp technique gives a direct electrical read-out from membranes.
`CCS(=O)(=O)c1cccc(C(C2CC2)N(Cc2ccc(F)cn2)C(=O)C2CC2c2ccc(F)cc2F)c1` (centres unmarked) [Example 193]: the IC50 lay within 0.05 to 0.2 µM.

As for `CCS(=O)(=O)c1cccc(C(C2CC2)N(Cc2ccc(F)cn2)C(=O)C2CC2c2ccc(F)cc2F)c1` (centres unmarked) [Example 196], the IC50 was in the range of 0.05 to 0.2 µM.

Turning to `CCS(=O)(=O)c1cccc(C(C2CC2)N(Cc2ccc(F)cn2)C(=O)C2CC2c2ccc(F)c(F)c2)c1` (centres unmarked) [Example 197], the IC50 fell in the range of 0.05 to 0.2 µM.

As for `CCS(=O)(=O)c1cccc(C(C2CC2)N(Cc2ccc(F)cn2)C(=O)C2CC2c2cccc(C(F)(F)F)c2)c1` (centres unmarked) [Example 212], the IC50 is 0.05 to 0.2 µM. For `CCS(=O)(=O)c1cccc(C(C2CC2)N(Cc2cncc(F)c2)C(=O)C2CC2c2ccc(F)cc2)c1` (centres unmarked) [Example 214], the concentration for half-maximal inhibition (IC50) fell in the range of 0.05 to 0.2 µM. Under `CCS(=O)(=O)c1cccc(C(C2CC2)N(Cc2ccc(F)cn2)C(=O)C2CC2c2ccc(F)cc2)c1` (centres unmarked) [Example 215] stands 0.05 to 0.2 µM. Under `CCS(=O)(=O)c1cccc(C(C2CC2)N(Cc2ccccn2)C(=O)C2CC2c2cccc(C(F)(F)F)c2)c1` (centres unmarked) [Example 216] stands 0.05 to 0.2 µM; under `CCS(=O)(=O)c1cccc(C(C2CC2)N(Cc2ccccn2)C(=O)C2CC2c2cccc(C(F)(F)F)c2)c1` (centres unmarked) [Example 217], 0.05 to 0.2 µM; under `CCS(=O)(=O)c1cccc(C(C2CC2)N(Cc2ncccc2F)C(=O)C2CC2c2ccc(F)cc2)c1` (centres unmarked) [Example 218], 0.05 to 0.2 µM. `CCS(=O)(=O)c1cccc(C(C2CC2)N(C(=O)C2CC2c2ccc(F)cc2)C2CCC(F)(F)CC2)c1` (centres unmarked) [Example 219]: the IC50 lay in the range of 0.05 to 0.2 µM.

In the case of `CCS(=O)(=O)c1cccc(C(C2CC2)N(C(=O)C2CC2c2ccccc2OC(F)(F)F)C2CCOCC2)c1` (centres unmarked) [Example 220], the IC50 was 0.05 to 0.2 µM. On to `CCS(=O)(=O)c1cccc(C(C2CC2)N(C(=O)C2CC2c2ccccc2OC(F)(F)F)C2CCOCC2)c1` (centres unmarked) [Example 221], for which the IC50 fell in the range of 0.2 to 1 µM. Under `CCS(=O)(=O)c1cccc(C(C2CC2)N(Cc2ccc(F)cn2)C(=O)C2CC2c2ccc(OC(F)F)cc2)c1` (centres unmarked) [Example 222] stands 0.05 to 0.2 µM. As to `CCS(=O)(=O)c1cccc(C(C2CC2)N(Cc2cccnn2)C(=O)C2CC2c2ccc(F)cc2)c1` (centres unmarked) [Example 223], the half-inhibitory concentration (IC50) lay in the range of 0.05 to 0.2 µM. Under `CCS(=O)(=O)c1cccc(C(C2CC2)N(Cc2cccnn2)C(=O)C2CC2c2cccc(C(F)(F)F)c2)c1` (centres unmarked) [Example 225] stands 0.2 to 1 µM; under `CCS(=O)(=O)c1cccc(C(C2CC2)N(Cc2cccnn2)C(=O)C2CC2c2cccc(C(F)(F)F)c2)c1` (centres unmarked) [Example 226], 0.2 to 1 µM; under `CCS(=O)(=O)c1ccc(C(C2CC2)N(Cc2ccc(F)cn2)C(=O)C2CC2c2cccc(C(F)(F)F)c2)cc1` (centres unmarked) [Example 227], 0.05 to 0.2 µM. Under `CCS(=O)(=O)c1ccc(C(C2CC2)N(Cc2ccc(F)cn2)C(=O)C2CC2c2cccc(C(F)(F)F)c2)cc1` (centres unmarked) [Example 228] stands 0.05 to 0.2 µM; under `CCS(=O)(=O)c1ccc(C(C2CC2)N(Cc2ccc(F)cn2)C(=O)C2CC2c2ccc(F)cc2F)cc1` (centres unmarked) [Example 229], 0.05 to 0.2 µM; under `CCS(=O)(=O)c1ccc(C(C2CC2)N(Cc2ccc(F)cn2)C(=O)C2CC2c2ccc(F)cc2F)cc1` (centres unmarked) [Example 230], 0.05 to 0.2 µM. Consider `CCS(=O)(=O)c1ccc(C(C2CC2)N(Cc2cccnn2)C(=O)C2CC2c2ccc(F)cc2)cc1` (centres unmarked) [Example 231], for which the IC50 is 0.05 to 0.2 µM. Under `CCS(=O)(=O)c1ccc(C(C2CC2)N(Cc2ccc(F)cn2)C(=O)C2CC2c2ccc(F)cc2)cc1` (centres unmarked) [Example 232] stands 0.05 to 0.2 µM. Under `CCS(=O)(=O)c1ccc(C(C2CC2)N(Cc2ccc(F)cn2)C(=O)C2CC2c2ccc(F)cc2)cc1` (centres unmarked) [Example 233] stands 0.05 to 0.2 µM. In the case of `CC(C)S(=O)(=O)c1ccc(C(C2CC2)N(Cc2ncccc2F)C(=O)C2CC2c2ccc(F)cc2)cc1` (centres unmarked) [Example 234], the IC50 was 0.2 to 1 µM.

Turning to `CC(C)S(=O)(=O)c1ccc(C(C2CC2)N(Cc2ncccc2F)C(=O)C2CC2c2ccc(F)cc2)cc1` (centres unmarked) [Example 235], the IC50 fell in the range of 0.2 to 1 µM. Under `CC(C)S(=O)(=O)c1ccc(C(C2CC2)N(Cc2cccnn2)C(=O)C2CC2c2ccc(F)cc2)cc1` (centres unmarked) [Example 236] stands 0.05 to 0.2 µM; under `CC(C)S(=O)(=O)c1ccc(C(C2CC2)N(Cc2cccnn2)C(=O)C2CC2c2ccc(F)cc2)cc1` (centres unmarked) [Example 237], 0.05 to 0.2 µM. Under `CC(C)S(=O)(=O)c1ccc(C(C2CC2)N(Cc2ccc(F)cn2)C(=O)C2CC2c2ccc(F)cc2)cc1` (centres unmarked) [Example 238] stands 0.05 to 0.2 µM; under `CC(C)S(=O)(=O)c1ccc(C(C2CC2)N(Cc2ccc(F)cn2)C(=O)C2CC2c2ccc(F)cc2)cc1` (centres unmarked) [Example 239], 0.2 to 1 µM; under `CC(C)S(=O)(=O)c1cccc(C(C2CC2)N(Cc2cccnn2)C(=O)C2CC2c2ccc(F)cc2)c1` (centres unmarked) [Example 240], 0.2 to 1 µM. Under `CC(C)S(=O)(=O)c1cccc(C(C2CC2)N(Cc2cccnn2)C(=O)C2CC2c2ccc(F)cc2)c1` (centres unmarked) [Example 241] stands 0.2 to 1 µM; under `CC(C)S(=O)(=O)c1cccc(C(C2CC2)N(Cc2ccc(F)cn2)C(=O)C2CC2c2ccc(F)cc2)c1` (centres unmarked) [Example 242], 0.05 to 0.2 µM; under `CC(C)S(=O)(=O)c1cccc(C(C2CC2)N(Cc2ccc(F)cn2)C(=O)C2CC2c2ccc(F)cc2)c1` (centres unmarked) [Example 243], 0.05 to 0.2 µM. Turning to `CC(C)S(=O)(=O)c1cccc(C(C2CC2)N(Cc2cncc(F)c2)C(=O)C2CC2c2ccc(F)cc2)c1` (centres unmarked) [Example 244], the IC50 was 0.2 to 1 µM. Turning to `CC(C)S(=O)(=O)c1cccc(C(C2CC2)N(Cc2ncccc2F)C(=O)C2CC2c2ccc(F)cc2)c1` (centres unmarked) [Example 245], the IC50 was in the range of 0.2 to 1 µM. Under `CC(C)S(=O)(=O)c1cccc(C(C2CC2)N(Cc2ncccc2F)C(=O)C2CC2c2ccc(F)cc2)c1` (centres unmarked) [Example 246] stands 0.2 to 1 µM. For the molecule `CC(C)S(=O)(=O)c1cccc(C(C2CC2)N(Cc2ccncn2)C(=O)C2CC2c2ccc(F)cc2)c1` (centres unmarked) [Example 247], the IC50 is 0.05 to 0.2 µM. Under `O=C(C1CC1c1ccc(F)cc1)N(Cc1cccnn1)C(c1ccc(S(=O)(=O)C2CC2)cc1)C1CC1` (centres unmarked) [Example 248] stands 0.2 to 1 µM. As for `O=C(C1CC1c1ccc(F)cc1)N(Cc1cccnn1)C(c1ccc(S(=O)(=O)C2CC2)cc1)C1CC1` (centres unmarked) [Example 249], the IC50 fell in the range of 0.05 to 0.2 µM. Under `O=C(C1CC1c1ccc(F)cc1)N(Cc1ccc(F)cn1)C(c1ccc(S(=O)(=O)C2CC2)cc1)C1CC1` (centres unmarked) [Example 250] stands 0.2 to 1 µM. With `N#Cc1cccc(C(C2CC2)N(Cc2ncccc2F)C(=O)C2CC2c2ccc(F)cc2)c1` (centres unmarked) [Example 251], the IC50 fell in the range of 0.2 to 1 µM. Under `N#Cc1cccc(C(C2CC2)N(Cc2ncccc2F)C(=O)C2CC2c2ccc(F)cc2)c1` (centres unmarked) [Example 252] stands 0.05 to 0.2 µM; under `CCS(=O)(=O)c1cccc(CN(C(=O)C2CC2c2ccc(F)cc2)C(c2ccc(Cl)cc2)C2CC2)n1` (centres unmarked) [Example 253], less than 0.05 µM. Under `CSc1cccc(CN(C(=O)C2CC2c2ccc(F)cc2)C(c2ccc(Cl)cc2)C2CC2)n1` (centres unmarked) [Example 254] stands 0.05 to 0.2 µM; under `CC(CC(=O)N(Cc1cccnn1)C(c1ccc(OC(F)F)cc1)C1CC1)c1ccccc1C(F)(F)F` (centres unmarked) [Example 260], 0.05 to 0.2 µM. As for `CC(CC(=O)N(Cc1cccnn1)C(c1ccc(OC(F)F)cc1)C1CC1)c1ccccc1C(F)(F)F` (centres unmarked) [Example 261], the IC50 lay within 0.2 to 1 µM.

Turning to `CC(CC(=O)N(Cc1cccnn1)C(c1ccc(OC(F)F)cc1)C1CC1)c1ccc(F)cc1` (centres unmarked) [Example 262], the IC50 is less than 0.05 µM. On to `CC(CC(=O)N(Cc1ccc(C(F)(F)F)nc1)C(c1ccc(OC(F)F)cc1)C1CC1)c1ccccc1S(C)(=O)=O` (centres unmarked) [Example 263], for which the half-inhibitory concentration (IC50) lay in the range of 0.05 to 0.2 µM. On to `CC(CC(=O)N(Cc1ccc(F)cn1)C(c1ccc(S(=O)(=O)C(C)C)cc1)C1CC1)c1ccc(F)cc1` (centres unmarked) [Example 264], for which the IC50 is less than 0.05 µM. Under `CCS(=O)(=O)c1cccc(C(C2CC2)N(Cc2ccc(F)cn2)C(=O)CC(C)c2ccccc2C(F)(F)F)c1` (centres unmarked) [Example 265] stands 0.05 to 0.2 µM. Consider `CCS(=O)(=O)c1ccc(C(C2CC2)N(Cc2ccc(F)cn2)C(=O)CC(C)c2ccccc2C(F)(F)F)cc1` (centres unmarked) [Example 269], for which the IC50 lay within 0.05 to 0.2 µM. Consider `CC(CC(=O)N(Cc1ccc(F)cn1)C(c1ccc(F)cc1)C1CCCO1)c1ccc(F)cc1` (centres unmarked) [Example 270], for which the IC50 lay in the range of 0.05 to 0.2 µM. For the molecule `CC(CC(=O)N(Cc1ccc(F)cn1)C(c1ccc(F)cc1F)C1CCN(C)CC1)c1ccc(F)cc1` (centres unmarked) [Example 271], the half-inhibitory concentration (IC50) fell in the range of 0.2 to 1 µM.

`CC(CC(=O)N(Cc1cccc[n+]1[O-])C(c1ccc(Cl)cc1)C1CC1)c1ccc(F)cc1` (centres unmarked) [Example 272]: the IC50 was in the range of 0.05 to 0.2 µM. As to `CC(c1ccc(Cl)cc1)N(C(=O)CS(=O)(=O)c1ccc(F)cc1)C1CC2CCC(C1)N2C` (centres unmarked) [Example 280], the IC50 fell in the range of 0.2 to 1 µM. Regarding `O=C(CS(=O)(=O)c1ccccc1)N(Cc1ccc(C(F)(F)F)nc1)C(c1ccc(F)cc1)C1CCCO1` (centres unmarked) [Example 282], the IC50 lay within 0.05 to 0.2 µM.

These data come from patent US9493451B2 (Bionomics Limited, priority 2011, dated 2016).
